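A five-concentration, 48-hour dose response in 96-well plates underlies each endpoint, interpolated linearly between surrounding concentrations. GI50 is the concentration that inhibits growth by half.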 Calls of active or inactive are those of the source. No stated cut-off is given here; in the data, active = GI50 up to about 1.1 µM and inactive = higher.
Legend:
Test in all cases: growth of human tumour cells (NCI), 48 h
NCI-H23 = test system: NCI-H23
KM12 = test system: KM12
HL-60 = test system: HL-60
MOLT-4 = test system: MOLT-4
ACHN = test system: ACHN
COLO 205 = test system: COLO 205
SK-MEL-28 = test system: SK-MEL-28
MDA-MB-435 = test system: MDA-MB-435
SK-MEL-2 = test system: SK-MEL-2
UACC-257 = test system: UACC-257
SN12C = test system: SN12C
SK-MEL-5 = test system: SK-MEL-5
SNB-75 = test system: SNB-75
A549 = test system: A549
U-251 = test system: U-251
CCRF-CEM = test system: CCRF-CEM
NCI-H522 = test system: NCI-H522
NCI-H226 = test system: NCI-H226
LOX IMVI = test system: LOX IMVI
MCF7 = test system: MCF7

Measured: GI50

FC(F)=C(c1ccc(-c2ccc(Cl)cc2)cc1)C(F)(F)F
inactive: NCI-H23 17.5 µM | KM12 19.3 µM | HL-60 45.3 µM | MOLT-4 32.3 µM | ACHN 17.3 µM | COLO 205 17.9 µM | SK-MEL-28 12.4 µM | MDA-MB-435 20.2 µM | SK-MEL-2 23.7 µM | UACC-257 20 µM | SN12C 20.3 µM | SK-MEL-5 18.2 µM | SNB-75 11 µM | A549 17.9 µM | U-251 16.7 µM | CCRF-CEM 26.8 µM | NCI-H522 20.3 µM

O=CN/C=C/c1cc(O)ccc1O [ERBSTATIN]
inactive: NCI-H226 44 µM | NCI-H23 18.8 µM | KM12 > 89.3 µM | HL-60 5.14 µM | MOLT-4 22.9 µM | ACHN 14.8 µM | COLO 205 11.9 µM | SK-MEL-28 23.4 µM | SK-MEL-2 29.3 µM | UACC-257 13.5 µM | SN12C 16.7 µM | SK-MEL-5 18.7 µM | LOX IMVI 14 µM | SNB-75 62.4 µM | A549 > 65.6 µM | MCF7 11.3 µM | U-251 42.3 µM | CCRF-CEM 4.11 µM | NCI-H522 4.6 µM

O=c1cc(NNc2cccc(Cl)c2)[nH]c(=O)[nH]1
inactive: NCI-H226 > 100 µM | NCI-H23 59.8 µM | KM12 45.5 µM | HL-60 19.5 µM | MOLT-4 19.8 µM | ACHN 38.9 µM | COLO 205 42.1 µM | SK-MEL-28 95.9 µM | SK-MEL-2 42.4 µM | UACC-257 44.3 µM | SK-MEL-5 51.1 µM | LOX IMVI 15.4 µM | SNB-75 88.5 µM | A549 > 100 µM | MCF7 1.88 µM | U-251 > 100 µM | CCRF-CEM 21.6 µM | NCI-H522 17.5 µM

NCCCC(N)(C(=O)O)C(F)F (stereo not drawn) [EFLORNITHINE]
inactive: NCI-H226 > 5000 µM | NCI-H23 > 5000 µM | KM12 > 5000 µM | HL-60 > 3910 µM | MOLT-4 3030 µM | ACHN > 100 µM | COLO 205 > 5000 µM | SK-MEL-28 > 5000 µM | SK-MEL-2 > 5000 µM | UACC-257 > 5000 µM | SN12C > 1980 µM | SK-MEL-5 > 5000 µM | LOX IMVI 678 µM | SNB-75 2340 µM | A549 > 5000 µM | MCF7 > 5000 µM | U-251 > 5000 µM | CCRF-CEM > 1580 µM | NCI-H522 > 5000 µM

From ChEMBL document CHEMBL1201862, “PubChem BioAssay data set” (2004)
